The test system of series [1] is CT26 tumors induced by i.p. inoculation. Description: CT26 colon cancer i.p. model, i.p. treatment (Example 1). Conditions: for tumor growth inhibition: i.p. treatment on days 3, 10 and 17, compared to PBS control. The format is in vivo, BALB/c mice. Here is the method:
(§1) Female BALB/c and C57BL/6 mice (6-7 weeks old) were purchased from the Jackson Laboratory. All animal studies were approved by and conducted according to the regulation of the Institutional Animal Care and Use Committee of the University of California, San Diego. CT26 cells were administered via the intraperitoneal (i.p.) and subcutaneous (s.c.) routes. […] Treatments were administered three times at weekly intervals. The body circumference and weight were recorded for 40 days at 2-day intervals and mice were euthanized when the circumference reached ˜8 cm. To establish the CT26 colon cancer s.c. model, CT26 cells (1.5×10^5 cells in 15 μL PBS) were mixed with 15 μL Matrigel (Corning) and injected s.c. into the left flank of BALB/c mice. […] The tumor volumes, calculated using the equation tumor width^2×tumor length)/2, and body weight were recorded for 40 days at 2-day intervals and mice were euthanized when the tumor volume reached ˜1500 mm^3.

Series [2] deals with s.c. CT26 tumors. Description: CT26 colon cancer s.c. model, intratumoral treatment (Example 1). It counts as in vivo, BALB/c mice. Conditions: i.t. treatment. Here is the method:
as §1

Series [3] concerns CT26 tumors induced by i.p. inoculation. Conditions: reference [17]; cited from earlier work.
Series [4] has as its system RAW-Blue cells. Description: RAW-Blue cells / Quanti-Blue SEAP assay, in vitro immunogenicity (Example 1). Also noted: dose or concentration left out as unconfirmed. Conditions: 24 h. The format is cell-based. Here is the method: RAW-Blue cells (InvivoGen) were grown in Dulbecco's Modified Eagle's Medium (DMEM) supplemented with 10% (v/v) heat-sterilized fetal bovine serum (FBS; Atlanta Biologicals) and 1% (v/v) penicillin/streptomycin (p/s; Thermo Fisher Scientific). Normocin ([…]) and zeocin ([…]) were also added according to the supplier's instructions (InvivoGen). CT26 cells obtained from the ATCC were grown in Roswell Park Memorial Institute (RPMI) 1640 medium and DMEM, respectively, each supplemented with 10% (v/v) FBS and 1% (v/v) p/s.
Lipopolysaccharide (LPS; InvivoGen) was used as a positive control. After the incubation, 20 μL of the supernatant was mixed with 180 μL of Quanti-Blue solution (InvivoGen) and incubated at room temperature for 6 h. The absorbance was then measured at 630 nm using a microplate reader (Tecan).

On to `O=C1[O][Pt]2([NH][C@@H]3CCCC[C@H]3[NH]2)[O]C1=O` [oxaliplatin], for which the survival rate entry in series [1] (compared to mice treated with CCMV or poly(I:C) alone) was “slightly increased the survival rate”. Also, in series [1], the tumor growth inhibition result is given as “significantly inhibited tumor growth”. For the same molecule, in series [2] (day 26), the tumor volume is given as roughly 233 mm^3.

ODN1826: the “impact on CT26 tumors (previous work)” value in series [3] is “minimal impact”.

With “polyinosinic:polycytidylic acid [poly(I:C)]”, the “SEAP levels versus PBS-treated control” value in series [4] is on record as “did not differ significantly”. The tumor growth inhibition entry in series [1] is “slight inhibitory effect, albeit not statistically significant”. The “body weight of CT26-bearing mice” value in series [1] (weight gain is due to growth of the tumor) is recorded as “increased”. Moreover, the “tumor growth by day 26” value in series [2] turned out to be 30 fold.

The values are drawn from patent US20250302975A1, “METHODS AND COMPOSITIONS FOR AGONISING TLR3” (priority 2024, published 2025).
